Measured values taken from publication PMC10819888, “Benzimidazole-Based Derivatives as Apoptotic Antiproliferative Agents: Design, Synthesis, Docking, and Mechanistic Studies” (Molecules, 2024).

How the values were obtained:
Format in all cases: cell-based, human
[1] = tested on: HL-60(TB); experiment: NCI-60 five-dose assay; conditions: HL-60(TB) (Leukemia), 48 h
[2] = tested on: HOP-62; experiment: NCI-60 five-dose assay; conditions: HOP-62 (Non-Small Cell Lung Cancer), 48 h
[3] = tested on: HCT-116; experiment: NCI-60 five-dose assay; conditions: HCT-116 (Colon Cancer), 48 h
[4] = tested on: SF-539; experiment: NCI-60 five-dose assay; conditions: SF-539 (CNS Cancer), 48 h
[5] = tested on: SNB-19; experiment: NCI-60 five-dose assay; conditions: SNB-19 (CNS Cancer), 48 h
[6] = tested on: U251; experiment: NCI-60 five-dose assay; conditions: U251 (CNS Cancer), 48 h
[7] = tested on: LOX IMVI; experiment: NCI-60 five-dose assay; conditions: LOX IMVI (Melanoma), 48 h
[8] = tested on: SK-MEL-28; experiment: NCI-60 five-dose assay; conditions: SK-MEL-28 (Melanoma), 48 h
[9] = tested on: SK-MEL-5; experiment: NCI-60 five-dose assay; conditions: SK-MEL-5 (Melanoma), 48 h
[10] = tested on: UACC-257; experiment: NCI-60 five-dose assay; conditions: UACC-257 (Melanoma), 48 h
[11] = tested on: UACC-62; experiment: NCI-60 five-dose assay; conditions: UACC-62 (Melanoma), 48 h
[12] = tested on: IGROV1; experiment: NCI-60 five-dose assay; conditions: IGROV1 (Ovarian Cancer), 48 h
[13] = tested on: OVCAR-3; experiment: NCI-60 five-dose assay; conditions: OVCAR-3 (Ovarian Cancer), 48 h
[14] = tested on: 786-0; experiment: NCI-60 five-dose assay; conditions: 786-0 (Renal Cancer), 48 h
[15] = tested on: ACHN; experiment: NCI-60 five-dose assay; conditions: ACHN (Renal Cancer), 48 h
[16] = tested on: RXF 393; experiment: NCI-60 five-dose assay; conditions: RXF 393 (Renal Cancer), 48 h
[17] = tested on: SN12C; experiment: NCI-60 five-dose assay; conditions: SN12C (Renal Cancer), 48 h
[18] = tested on: PC-3; experiment: NCI-60 five-dose assay; conditions: PC-3 (Prostate Cancer), 48 h
[19] = tested on: MCF7; experiment: NCI-60 five-dose assay; conditions: MCF7 (Breast Cancer), 48 h
[20] = tested on: BT-549; experiment: NCI-60 five-dose assay; conditions: BT-549 (Breast Cancer), 48 h
[21] = tested on: MDA-MB-468; experiment: NCI-60 five-dose assay; conditions: MDA-MB-468 (Breast Cancer), 48 h
[22] = tested on: Non-Small Cell Lung Cancer subpanel; experiment: NCI-60 five-dose assay, subpanel
[23] = tested on: Colon Cancer subpanel; experiment: NCI-60 five-dose assay, subpanel
[24] = tested on: Prostate Cancer subpanel; experiment: NCI-60 five-dose assay, subpanel
[25] = tested on: Breast Cancer subpanel; experiment: NCI-60 five-dose assay, subpanel
[26] = Homo sapiens, read-out: GI50 Conc. per Cell Line
[27] = Homo sapiens, read-out: LC50 (the source's name)

O=C(NN=Cc1ccc(Cl)cc1)c1ccc2[nH]c(-c3ccc(Cl)cc3)nc2c1 [Compound 4e, N′-(4-Chlorobenzylidene)-2-(4-chlorophenyl)-1H-benzimidazole-5-carbohydrazide] was tested, and the TGI [1] was 6.53 µM, the GI50 [1, 26] was 1.85 µM and the CC50 [1, 27] was 54.8 µM. For the same compound, the TGI [2] was 4.10 µM, the GI50 [2, 26] was 1.8 µM and the CC50 [2, 27] was 9.32 µM. For the same compound, the TGI [3] was 3.51 µM, the GI50 [3, 26] was 1.45 µM and the CC50 [3, 27] was 8.52 µM. It also gave a GI50 [4, 26] of 1.7 µM, a CC50 [4, 27] of 5.93 µM and a TGI [4] of 3.17 µM. For the same compound, the GI50 [5, 26] was 2.34 µM, the CC50 [5, 27] was 13.3 µM and the TGI [5] was 5.06 µM. For the same compound, the GI50 ([6]; Homo sapiens, U-251, read-out: GI50 Conc. per Cell Line) was 2.1 µM, the CC50 ([6]; Homo sapiens, U-251, read-out: LC50 (the source's name)) was 8.35 µM and the TGI [6] was 4.18 µM. The GI50 [7, 26] was 1.57 µM, the CC50 [7, 27] was 5.5 µM and the TGI [7] was 2.94 µM. The GI50 [8, 26] was 1.58 µM, the CC50 [8, 27] was 5.86 µM and the TGI [8] was 3.04 µM. For the same compound, the GI50 [9, 26] was 1.81 µM, the CC50 [9, 27] was 6.33 µM and the TGI [9] was 3.39 µM. For the same compound, the GI50 [10, 26] was 2.14 µM, the CC50 [10, 27] was 11.6 µM and the TGI [10] was 4.72 µM. It also gave a GI50 [11, 26] of 1.78 µM, a CC50 [11, 27] of 6.49 µM and a TGI [11] of 3.40 µM. It also gave a GI50 ([12]; Homo sapiens, IGROV-1, read-out: GI50 Conc. per Cell Line) of 1.5 µM, a CC50 ([12]; Homo sapiens, IGROV-1, read-out: LC50 (the source's name)) of 5.92 µM and a TGI [12] of 2.98 µM. It also gave a GI50 [13, 26] of 1.84 µM, a CC50 [13, 27] of 6.28 µM and a TGI [13] of 3.39 µM. For the same compound, the TGI [14] was 3.48 µM, the GI50 [14, 26] was 1.79 µM and the CC50 [14, 27] was 6.76 µM. It also gave a TGI [15] of 3.17 µM, a GI50 [15, 26] of 1.73 µM and a CC50 [15, 27] of 5.78 µM. For the same compound, the GI50 [16, 26] was 1.61 µM, the CC50 [16, 27] was 6.64 µM and the TGI [16] was 3.27 µM. It also gave a GI50 [17, 26] of 1.96 µM, a CC50 [17, 27] of 9.26 µM and a TGI [17] of 4.26 µM. It also gave an LC50 ([18]; Homo sapiens) of 7.05 µM, a GI50 [18, 26] of 1.55 µM and a TGI [18] of 3.30 µM. For the same compound, the GI50 [19, 26] was 1.15 µM, the CC50 [19, 27] was 5.73 µM and the TGI [19] was 2.56 µM. The TGI [20] was 2.13 µM, the GI50 [20, 26] was 4.93 µM and the CC50 [20, 27] was 75.8 µM. It also gave an LC50 (concentration killing 50% of cells) ([21]; Homo sapiens) of 6.36 µM, a GI50 [21, 26] of 1.64 µM and a TGI [21] of 3.23 µM. The GI50 ([22]; Homo sapiens, Non-Small Cell Lung Cancer, average sensitivity of all subpanel cell lines, read-out: GI50 Subpanel MID b) was 1.9 µM, the “GI50 Selectivity Ratio (MID a/MID b)” value ([22]; Non-Small Cell Lung Cancer subpanel) was 0.94 and the “GI50 Selectivity Ratio (MID a/MID b)” value ([23]; Colon Cancer subpanel) was 1.04. For the same compound, the GI50 ([23]; Homo sapiens, Colon Cancer, average sensitivity of all subpanel cell lines, read-out: GI50 Subpanel MID b) was 1.72 µM, the GI50 ([24]; Homo sapiens, Prostate Cancer, average sensitivity of all subpanel cell lines, read-out: GI50 Subpanel MID b) was 1.65 µM and the “GI50 Selectivity Ratio (MID a/MID b)” value ([24]; Prostate Cancer subpanel) was 1.08. The “GI50 Selectivity Ratio (MID a/MID b)” value ([25]; Breast Cancer subpanel) was 0.79 and the GI50 ([25]; Homo sapiens, Breast Cancer, average sensitivity of all subpanel cell lines, read-out: GI50 Subpanel MID b) was 2.27 µM.
